Experimental data from ChEMBL document CHEMBL1149308, “4-{(2R)-[3-Aminopropionylamido]-3-(2,4-dichlorophenyl)propionyl}-1-{2-[(2-thienyl)ethylaminomethyl]phenyl}piperazine as a potent and selective melanocortin-4 receptor antagonist--design, synthesis, and characterization” (J Med Chem, 2004).
The source made the active and inactive calls. The calls are words filed in the database; no cut-off is given here.

Columns and labels:
[1] = biological target: T1, Melanocortin receptor 3 (Homo sapiens, UniProt P41968); format: cell-based, HEK293
[2] = biological target: T2, Melanocortin receptor 4 (Homo sapiens, UniProt P32245); test: biochemical
Description: (§1) Displacement of [125]NDP-MSH from human MC4 receptor expressed in HEK293 cells

[3] = biological target: T2, Melanocortin receptor 4
Description: Agonist activity at human MC4 receptor expressed in HEK293 cells assessed as stimulation of cAMP production

[4] = biological target: T3, Melanocyte-stimulating hormone receptor (Homo sapiens, UniProt Q01726); test: Inhibition of human MC1 receptor expressed in HEK293 cells at 10 uM; format: cell-based
Target sequence in this assay (Q01726 whole entry, looked up): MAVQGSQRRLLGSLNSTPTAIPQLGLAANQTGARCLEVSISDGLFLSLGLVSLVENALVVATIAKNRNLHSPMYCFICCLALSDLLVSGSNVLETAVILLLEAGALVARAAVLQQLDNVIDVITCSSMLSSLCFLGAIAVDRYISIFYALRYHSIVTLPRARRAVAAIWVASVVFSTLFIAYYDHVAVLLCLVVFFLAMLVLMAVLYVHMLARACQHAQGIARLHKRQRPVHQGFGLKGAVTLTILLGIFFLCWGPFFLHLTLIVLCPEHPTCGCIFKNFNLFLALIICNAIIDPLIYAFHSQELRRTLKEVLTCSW

[5] = biological target: T1, Melanocortin receptor 3; test: Inhibition of human MC3 receptor expressed in HEK293 cells at 10 uM; format: cell-based
[6] = Intrinsic clearance in human liver microsomes; format: ADME, Microsome
[7] = Oral bioavailability in rat at 10 mg/kg, po; format: ADME, organism-based; details: in vivo
[8] = biological target: Melanocortin receptor 5 (Homo sapiens, UniProt P33032); format: cell-based, HEK293
[9] = biological target: T2, Melanocortin receptor 4; test: Antagonist activity at human MC4 receptor expressed in HEK293 cells assessed as inhibition of alpha-MSH-stimulated cAMP production; format: functional, cell-based; details: read-out: pA2 (converted)
[10] = Distribution coefficient, log D at pH 7.4; format: physicochemical; details: octanol/water
[11] = Concentration in rat brain at 2 mg/kg, iv after […]; format: ADME, organism-based; set-up: dose 2 mg/kg, route intravenous; details: read-out: Drug uptake
[12] = biological target: T3, Melanocyte-stimulating hormone receptor; format: cell-based, HEK293
Target sequence in this assay (Q01726 whole entry): as the sequence (Q01726 whole entry, looked up) above

[13] = Tmax in rat at 10 mg/kg, po; format: ADME, organism-based; set-up: dose 10 mg/kg, route oral; details: in vivo
[14] = Volume of distribution in rat at 10 mg/kg, iv; format: ADME, organism-based; set-up: dose 10 mg/kg, route intravenous; details: in vivo, read-out: Vdss
[15] = Cmax in rat at 10 mg/kg, po; format: ADME, organism-based; set-up: dose 10 mg/kg, route oral; details: in vivo
[16] = Clearance in rat at 10 mg/kg, iv; format: ADME, organism-based; set-up: dose 10 mg/kg, route intravenous; details: in vivo
[17] = biological target: T2, Melanocortin receptor 4; remark: listed apart in the source
Description: as §1

[18] = Plasma concentration in rat at 2 mg/kg, iv after […]; format: ADME, organism-based; set-up: dose 2 mg/kg, route intravenous
[19] = Half life in rat at 10 mg/kg, iv; format: ADME, organism-based; set-up: dose 10 mg/kg, route intravenous; details: in vivo
[20] = Ratio of drug level in brain to plasma of rat at 2 mg/kg, iv after […]; format: ADME, organism-based; set-up: dose 2 mg/kg, route intravenous
[21] = AUC in rat at 10 mg/kg, po; format: ADME, organism-based; set-up: dose 10 mg/kg, route oral; details: plasma
[22] = biological target: T2, Melanocortin receptor 4; details: HEK293
Description: as §1

T2 sequence (P32245 whole entry): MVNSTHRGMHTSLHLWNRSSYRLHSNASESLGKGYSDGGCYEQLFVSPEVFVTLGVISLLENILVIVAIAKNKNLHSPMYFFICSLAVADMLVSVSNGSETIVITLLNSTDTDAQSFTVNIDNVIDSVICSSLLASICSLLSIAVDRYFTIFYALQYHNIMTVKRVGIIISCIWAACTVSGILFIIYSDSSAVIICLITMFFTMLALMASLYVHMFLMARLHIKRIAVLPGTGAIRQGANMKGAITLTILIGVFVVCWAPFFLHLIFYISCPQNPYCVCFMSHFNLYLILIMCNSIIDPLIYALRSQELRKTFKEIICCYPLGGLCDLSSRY
T1 sequence (P41968 whole entry): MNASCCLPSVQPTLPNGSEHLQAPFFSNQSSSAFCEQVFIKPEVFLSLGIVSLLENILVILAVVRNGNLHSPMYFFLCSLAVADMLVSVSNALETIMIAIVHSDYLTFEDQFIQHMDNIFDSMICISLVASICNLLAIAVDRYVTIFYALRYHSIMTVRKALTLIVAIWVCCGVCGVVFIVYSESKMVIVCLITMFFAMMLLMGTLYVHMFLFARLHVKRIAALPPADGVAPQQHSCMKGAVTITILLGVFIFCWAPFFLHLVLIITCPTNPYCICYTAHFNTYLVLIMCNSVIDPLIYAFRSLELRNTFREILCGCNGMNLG
Chain of Melanocortin receptor 5 (P33032 whole entry): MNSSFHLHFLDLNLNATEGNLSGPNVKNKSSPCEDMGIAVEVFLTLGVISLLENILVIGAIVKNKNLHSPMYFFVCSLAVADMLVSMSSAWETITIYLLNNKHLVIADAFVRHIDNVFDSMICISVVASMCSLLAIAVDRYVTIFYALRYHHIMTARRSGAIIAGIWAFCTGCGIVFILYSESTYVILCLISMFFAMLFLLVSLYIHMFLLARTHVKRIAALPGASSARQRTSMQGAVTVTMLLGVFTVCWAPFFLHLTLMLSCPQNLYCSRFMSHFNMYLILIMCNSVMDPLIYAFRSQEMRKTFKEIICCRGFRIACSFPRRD

With `NCCC(=O)N[C@H](Cc1ccc(Cl)cc1)C(=O)N1CCN(c2ccccc2CNCCc2cccs2)CC1` the Ki [1] was 1400 nM (antagonist).
With `Cn1nnc(CC2(C3CCCCC3)CCN(C(=O)[C@@H](Cc3ccc(Cl)cc3)NC(=O)[C@H]3Cc4ccccc4CN3)CC2)n1` the Ki [2] was 1.2 nM (antagonist).
For `NCc1ccccc1N1CCN(C(=O)[C@@H](Cc2ccc(Cl)cc2)NC(=O)[C@H]2Cc3ccccc3CN2)CC1`, the EC50 [3] was 890 nM (agonist), the inhibition [4] was 27% and the inhibition [5] was 34%.
With `NCCC(=O)N[C@H](Cc1ccc(Cl)cc1Cl)C(=O)N1CCN(c2ccccc2CNCCc2cccs2)CC1` the CLint scaled [6] was 23 mL/min/kg, the bioavailability [7] was 1% and the Ki [8] was 280 nM (antagonist). For the same compound, the Kb [9] was 12.6 nM (antagonist), the logD [10] was 1.1 and the concentration at […] [11] was 75 ng/g. For the same compound, the Ki [12] was 4200 nM (antagonist), the Tmax [13] was 0.5 h and the Vd [14] was 9.5 L/kg. The Cmax [15] was 18 ng/mL, the clearance [16] was 24 mL/min/kg and the Ki [17] was 1.8 nM (antagonist). It also gave a concentration at […] [18] of 71 ng/mL, a half-life [19] of 4.6 h and a Kp at […] [20] of 1. For the same compound, the AUC [21] was 51 ng·h/mL and the Ki [1] was 640 nM (antagonist).
For `NCC(=O)N[C@H](Cc1ccc(Cl)cc1)C(=O)N1CCN(c2ccccc2CNCCc2cccs2)CC1`, the EC50 [3] was 580 nM (agonist).
With `CS(=O)(=O)N1CC2(CCN(C(=O)[C@@H](Cc3ccccc3)NC(=O)[C@@H](N)Cc3c[nH]cn3)CC2)c2ccccc21` the Activity [22] was “inactive”.
